Measurements reported in patent US8293726B2, “Treatment of cancer and other diseases” (Vianova Labs, Inc., priority 2005, dated 2012).

Tests used:
[1] = test system: human tumor cell line: ductal carcinoma breast; assay: Human tumor cell lines in immunocompromised mice (intraperitoneal, ascitis): breast; type: in vivo; conditions: Breast CA; treated mice (4, 2 and 0.8 mg/kg/day orally for 10 days)
Protocol: (§1) Immunocompromised mice were used for this experiment. Mice were inbred in a sterile environment and fed ad libitum. Four groups of 40 mice, weighing approximately 20 g each (range: 17-25 g), were used for each tumor type. The human tumor cell lines used were the following: large B-cell lymphoma; squamous-cell carcinoma of the lung; ductal carcinoma breast; and adenocarcinoma of the lung. A suspension of tumor cells was injected in the peritoneum of immunocompromised mice. Following this, mice were examined and weighed daily. After 6-8 days, we observed the development of abdominal carcinomatosis and […]. At day 18, we observed the development of an abundant […], which increased the weight of the mice by approximately 20 g. At that time, mice were divided into four groups of 10. […] Assessment of tumor cell concentration in the […] abdominal metastases were measured on day 18 and every 2 days thereafter. In all mice, prior to treatment, we observed an increase in LDH ESR (>100) and a decrease in the hematocrit. Control (untreated) mice all died between day 21 and day 25 in all tumor types. […] Complete response: Weight (and ascetic) loss and the disappearance of all abdominal metastatic nodules and tumor cells. Partial response: Weight (and ascitic) loss and at least 25% decrease of tumor cell in the […] least 25% decrease in measured abdominal metastatic nodules. […] Progressive disease: When we observed an increase in […] or tumor volume or death of the animal.

[2] = test system: poorly differentiated lobular carcinoma of the right breast; assay: Patient case: stage IV lobular breast carcinoma with liver, spleen and bone metastases; type: in vivo, human
Excerpt: A patient with a past medical history of anemia and mild chronic renal failure due to retroperitoneal fibrosis presented with a stage IV poorly differentiated lobular carcinoma of the right breast and liver, spleen and bone metastases. […] Three days after treatment, we observed a decrease in LDH level from 450 to 204.

experimental lymphoma = assay: Histological analysis of liver and kidneys of mice with experimental lymphoma; type: in vivo; conditions: mouse with experimental lymphoma, orally daily 250 mg/kg
Protocol: FIGS. 11 and 12 are photomicrographs (450× and 900×, respectively) of part of the liver taken from a mouse with experimental lymphoma orally administered 24-ethyl-cholestane-3β,5α,6α-triol daily at a dosage of 250 mg/kg. Lymphocytic proliferation is insignificant.
Parenchymatous organs liver and kidneys received from mice with experimental lymphoma on the 15th day of observation and from mice treated with 24-ethyl-cholestane-3β,5α,6α-triol were taken for the histological analysis. Micropreparations were stained with hematoxilin eosin and examined by microscopy (FIGS. 9, 10, 11, and 12).

[3] = test system: hormone resistant metastatic prostate cancer; assay: Patient case: hormone resistant metastatic prostate cancer, PSA; type: in vivo, human
Excerpt: A patient presented with hormone resistant metastatic prostate cancer. They had previously been treated with three courses of chemotherapy (Navelbine+Taxotere, but their PSA was still increasing.

human tumor cell lines = assay: Human tumor cell lines in immunocompromised mice, general observations over all tumor types; type: in vivo
Protocol: Immunocompromised mice were used for this experiment. Mice were inbred in a sterile environment and fed ad libitum. Four groups of 40 mice, weighing approximately 20 g each (range: 17-25 g), were used for each tumor type. The human tumor cell lines used were the following: large B-cell lymphoma; squamous-cell carcinoma of the lung; ductal carcinoma breast; and adenocarcinoma of the lung. A suspension of tumor cells was injected in the peritoneum of immunocompromised mice. Following this, mice were examined and weighed daily. After 6-8 days, we observed the development of abdominal carcinomatosis and […]. At day 18, we observed the development of an abundant […], which increased the weight of the mice by approximately 20 g. At that time, mice were divided into four groups of 10. […] Assessment of tumor cell concentration in the […] abdominal metastases were measured on day 18 and every 2 days thereafter. In all mice, prior to treatment, we observed an increase in LDH ESR (>100) and a decrease in the hematocrit. Control (untreated) mice all died between day 21 and day 25 in all tumor types.

[4] = test system: metastatic renal cell carcinoma (stage IV); assay: Patient case: metastatic renal cell carcinoma; type: in vivo, human; conditions: 80 mg/day
[5] = test system: human tumor cell line: large B-cell lymphoma; assay: Human tumor cell lines in immunocompromised mice (intraperitoneal, ascitis): lymphoma; type: in vivo; conditions: treated mice (4, 2 and 0.8 mg/kg/day orally for 10 days)
Protocol: as §1

CC[C@H](CC[C@@H](C)[C@H]1CC[C@H]2[C@@H]3C[C@H](O)[C@@]4(O)C[C@@H](O)CC[C@]4(C)[C@H]3CC[C@]12C)C(C)C [24-ethyl-cholestane-3β,5α,6α-triol]
Complete Remission [1]: 60% | Partial Remission [1]: 20% | Progressive Disease [1]: 0% | Stable Disease [1]: 20% | Symptomatic Response [1]: 100% | CA 125 ([2]; After LC (five months), 60 mg/day, Before LC 125): 69 | CA 15-3 ([2]; After LC (five months), 60 mg/day, Before LC 237): 86 | renal failure and anemia ([2]; after treatment, 60 mg/day): improved | spleen metastasis on CT scan ([2]; after treatment, 60 mg/day): regressed | total Body MRI ([2]; after treatment, 60 mg/day): complete liver and spleen response | primitive breast mass on ultrasound ([2]; after treatment, regressed from 5): 3 cm | liver enzymes including LDH ([2]; five months after treatment commenced, 60 mg/day): returned to normal | LDH level ([2]; three days after treatment, 60 mg/day, decrease from 450): 204 | lymphocytic proliferation in liver (photomicrographs) (experimental lymphoma): insignificant | PSA ([3]; Day 13, 70 mg/day, Day 0 prior to treatment 1958 (nl < 4)): 1590 | PSA ([3]; Day 15, 70 mg/day): 1142 | PSA ([3]; Day 67, 70 mg/day): 802 | PSA ([3]; Day 110, 70 mg/day): 772 | survival without recurrence (human tumor cell lines; mice that exhibited a complete response): three month survival without recurrence | general condition (human tumor cell lines; most of the treated mice): improvement in the general condition | hematological abnormalities (human tumor cell lines; most of the treated mice): normalization of hematological abnormalities | time to ascitic regression (rapid response to therapy) (human tumor cell lines; most of the treated mice): 1 to 2 days | tumor cells (human tumor cell lines; most of the treated mice, associated with an important tumor lysis): total clearance of tumor cells | chest CT scan, nodule in the right lower lobe ([4]; eight months later): 1 mm | chest CT scan ([4]; one year after commencing therapy): normal | chest CT scan, left lung metastasis ([4]; six weeks after start, 1 cm deposit in both lungs before): disappearance of the left lung metastasis | Complete Remission [5]: 80% | Partial Remission [5]: 10% | Progressive Disease [5]: 0% | Stable Disease [5]: 10% | Symptomatic Response [5]: 100%
